Reference: US20230218496A1, “IONIC LIQUID AS AN ANTIPERSPIRANT” (Novigo GmbH, priority 2020, published 2023)

How the values were obtained:
[1] = Skin compatibility, epicutaneous test (occlusive patch); type: in vivo, human; details: 5% and 7.5% of the active ingredient
Description: The aim of examining skin compatibility, the so-called epicutaneous test, is to rule out primary skin irritation caused by a test product and/or existing sensitization to the test product. The test substances are applied occlusively to the skin at suitable concentrations. The epicutaneous contact with the test product is limited in terms of location and time and is intensified by occlusion conditions, so that the absorption of the test substances is favored. The skin was examined after 24, 48 and 72 hours. The occlusion conditions are used to allow a potential allergen to more easily penetrate through the stratum corneum to reach the effector cells that could elicit a local immune system response. A positive response occurs when a threshold level of irritation/sensitization is exceeded. A positive reaction to a correctly applied epicutaneous test is considered evidence of primary irritation by the test substance, but not necessarily evidence of sensitization. For the test, 20 mg or 20 μL of the test product is applied undiluted to a ready-made plaster, which is applied and fixed to the clinically healthy skin of the upper back. The test plaster is removed after an exposure time of 24 hours and for the first time assessed dermatologically and allergologically. […] The test reaction was evaluated for the first time 30 minutes after removal of the test plaster under standardized lighting. […]

[2] = test system: Corynebacterium xerosis DSM 20743, ATCC 373; test: Minimum inhibitory concentration, dilution series in suspension; type: cell-based; details: 1-hexylpyridinium chloride in water
Description: (§1) Corynebacteria and germs of the genus Staphylococcus epidermidis are mainly found in the underarm area. Therefore, the bacteriostatic effect of a composition comprising 1-hexylpyridinium chloride in water was investigated in vitro on the relevant test microbes. The test microbes used were Staphylococcus epidermidis with the identifier DSM 20044, ATCC 14990, Corynebacterium xerosis with the identification DSM 20743, ATCC 373 and Kocuria rhizophila of the type Micrococcus with the identifier DSM 11926. Using a series of dilutions of the substance to be tested, the minimum inhibitory concentration was determined at which growth of the bacteria in suspension could no longer be detected. […] Thus, an antimicrobial effect on odor-forming microorganisms and thus a deodorizing effect of the active ingredient 1-hexylpyridinium chloride is also shown in vitro.

[3] = test system: Staphylococcus epidermidis DSM 20044, ATCC 14990; test: as above; type: cell-based; details: 1-hexylpyridinium chloride in water
Description: as §1

[4] = biological target: BSA (bovine serum albumin) (Bos taurus, UniProt P02769); test: Protein precipitation in vitro, BSA gelling experiments; details: composition in water
Description: Therefore, the ability of a composition comprising 1-hexylpyridinium chloride in water for protein precipitation was investigated in vitro using BSA (bovine serum albumin) gelling experiments. An aqueous solution of aluminum chloride hexahydrate was used as a positive control.

[5] = In vitro evidence on toxicity, skin corrosion, mutagenicity, carcinogenicity
[6] = Antiperspirant effect and side effects over the active ingredient concentration range; type: in vivo

Chain of BSA (bovine serum albumin) (P02769 25-607): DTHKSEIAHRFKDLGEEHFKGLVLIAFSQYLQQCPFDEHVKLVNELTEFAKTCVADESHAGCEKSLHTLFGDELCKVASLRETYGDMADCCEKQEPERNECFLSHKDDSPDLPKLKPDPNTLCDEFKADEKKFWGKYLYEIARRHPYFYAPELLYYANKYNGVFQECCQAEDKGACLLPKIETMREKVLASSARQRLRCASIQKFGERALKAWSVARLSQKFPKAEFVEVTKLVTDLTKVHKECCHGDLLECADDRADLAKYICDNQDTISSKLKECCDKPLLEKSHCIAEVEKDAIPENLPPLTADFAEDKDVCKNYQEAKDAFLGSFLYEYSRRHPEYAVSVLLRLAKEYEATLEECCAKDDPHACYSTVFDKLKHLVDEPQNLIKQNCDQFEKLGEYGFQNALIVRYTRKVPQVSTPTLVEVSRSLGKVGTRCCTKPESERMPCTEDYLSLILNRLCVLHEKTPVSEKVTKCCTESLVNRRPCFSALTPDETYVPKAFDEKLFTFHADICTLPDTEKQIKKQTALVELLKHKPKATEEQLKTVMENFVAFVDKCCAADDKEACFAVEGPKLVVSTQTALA

SMILES: CCCCCC[n+]1ccccc1.[Cl-] [1-hexylpyridinium chloride]
- in vivo skin compatibility [1]: Good in vivo skin compatibility
- minimum inhibitory concentration (inhibition of bacterial growth), final preparation concentration [2]: 0.2%
- minimum inhibitory concentration (bacteriostatic effect) [3]: 0.4%
- gelation of BSA [4]: leads to gelation of BSA
- mutagenicity or carcinogenicity [5]: no mutagenicity or carcinogenicity
- skin corrosion [5]: no skin corrosion
- toxicity [5]: low toxicity
- serious side effects ([6]; active ingredient concentration 0.5% by weight up to 25% by weight): serious side effects were ruled out
- antiperspirant effect ([6]; active ingredient concentration 0.5% by weight up to 30% by weight): good antiperspirant effect
